Peptide text beside a SMILES is read from it.
How the values were obtained:
[1] = tested on: HMLER‐shEcad tumorspheres; assay: cells; assay type: cell-based, human; details: 16 h
[2] = tested on: HEK293T; assay: cells; assay type: cell-based, human; details: 72 h
[3] = Tryptophan fluorescent binding assay; details: tryptophan fluorescence; 50 µM peptide, lipid titrated 0-5000 µM; phosphate buffered saline 1X, pH 7.4; values as lipid per peptide
In short: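 Peptides at 50 µM were incubated for 1 h with increasing amounts of 3:1 POPC:POPG unilamellar vesicles in 1X phosphate buffered saline, pH 7.4. Tryptophan emission (300–450 nm, excitation 280 nm) was recorded on a Cytation 5 multi-mode reader. The lipid concentration giving 50 % peptide binding was determined and reported as a lipid-to-peptide ratio.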

[4] = tested on: HMLER‐shEcad; assay: cells; assay type: cell-based, human; details: 72 h
Description: (§1) […], and MCF-10A cells were maintained in MEGM with supplements and growth factors bovine pituitary extract, hydrocortisone, human epidermal growth factor, insulin, and gentamicin/amphotericin-B.

[5] = ANTS/DPX liposome leakage assay; details: for Peptide Concentration-induced 50 % ANTS/DPX leakage at pH 4.8 (L/P), 3POPC/1POPG Vesicle / Peptide Concentration-induced 50 % ANTS/DPX leakage at pH 4.8 (L/P), POPC Vesicle / Peptide Concentration-induced 50 % ANTS/DPX leakage at pH 7.4 (L/P), 3POPC/1POPG Vesicle / Peptide Concentration-induced 50 % ANTS/DPX leakage at pH 7.4 (L/P), POPC Vesicle: 0.5 mM vesicles, peptide 0-20 µM, 3 h incubation, lipid per peptide; for Peptide Concentration-induced 50 % ANTS/DPX leakage at pH 4.8 (L/P), 3POPC/1POPG Vesicle / Peptide Concentration-induced 50 % ANTS/DPX leakage at pH 4.8 (L/P), POPC Vesicle: HCl-adjusted PBS 1X pH 4.8; for Peptide Concentration-induced 50 % ANTS/DPX leakage at pH 7.4 (L/P), 3POPC/1POPG Vesicle / Peptide Concentration-induced 50 % ANTS/DPX leakage at pH 7.4 (L/P), POPC Vesicle: PBS 1X pH 7.4, high ratio = more potent
In short: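 The value is the lipid-to-peptide ratio giving 50% ANTS/DPX release, with fluorescence (350/510 nm) read after 3 h and scaled to 10% Triton as full leakage. Peptides were titrated into 0.5 mM LUVs of POPC or 3POPC/1POPG (0.1 µm, free dye removed by gel filtration) in PBS at pH 7.4 or 4.8.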

[6] = tested on: U2OS; assay type: cell-based, human; details: 72 h
[7] = tested on: HMLER; assay: cells; assay type: cell-based, human; details: 72 h
Description: as §1

[8] = tested on: MCF‐10A; assay: cells; assay type: cell-based, human; details: 72 h
Description: as §1

Structure (SMILES) | IC50 [1] [µM] | IC90 [1] [µM] | IC50 [2] [µM] | Lipid Concentration-induced 50% Peptide Binding (L/P), 3POPC/1POPG Vesicle [3] [L/P] | Lipid Concentration-induced 50% Peptide Binding (L/P), POPC Vesicle [3] [L/P] | IC50 [4] [µM] | Peptide Concentration-induced 50 % ANTS/DPX leakage at pH 4.8 (L/P), 3POPC/1POPG Vesicle [5] [L/P] | Peptide Concentration-induced 50 % ANTS/DPX leakage at pH 4.8 (L/P), POPC Vesicle [5] [L/P] | Peptide Concentration-induced 50 % ANTS/DPX leakage at pH 7.4 (L/P), 3POPC/1POPG Vesicle [5] [L/P] | Peptide Concentration-induced 50 % ANTS/DPX leakage at pH 7.4 (L/P), POPC Vesicle [5] [L/P] | change of ANTS/DPX dye leakage / liposome selectivity at pH 4.8 ([5]; pH = 4.8 compared with physiological pH, anionic versus neutral liposomes) | IC50 [6] [µM] | IC50 [7] [µM] | IC50 [8] [µM]
CC(C)C[C@H](NC(=O)CN)C(=O)N[C@@H](CC(C)C)C(=O)N[C@@H](CC(=O)O)C(=O)N[C@@H](CC(C)C)C(=O)N[C@@H](CC(C)C)C(=O)N[C@@H](CCC(=O)O)C(=O)N[C@@H](CC(C)C)C(=O)N[C@@H](CC(C)C)C(=O)N[C@@H](CC(C)C)C(=O)N[C@@H](CCCCN)C(=O)N[C@@H](C)C(=O)N[C@@H](C)C(=O)NCC(=O)N[C@@H](Cc1c[nH]c2ccccc12)C(N)=O [DEK] (H-GLLDLLELLLKAAGW-NH2) | 12 ± 2 | 22 ± 2 | 6.8 ± 0.85 | 1.67 | 1.50 | 0.7 ± 0.07 | 469 | 10 | 773 | 747 | significantly increased dye leakage from anionic liposomes | 19.9 ± 2.65 | – | –
CC(C)C[C@H](NC(=O)CN)C(=O)N[C@@H](CC(C)C)C(=O)N[C@@H](CCCCN)C(=O)N[C@@H](CC(C)C)C(=O)N[C@@H](CC(C)C)C(=O)N[C@@H](CCCCN)C(=O)N[C@@H](CC(C)C)C(=O)N[C@@H](CC(C)C)C(=O)N[C@@H](CC(C)C)C(=O)N[C@@H](Cc1c[nH]cn1)C(=O)N[C@@H](C)C(=O)N[C@@H](C)C(=O)NCC(=O)N[C@@H](Cc1c[nH]c2ccccc12)C(N)=O [KKH] (H-GLLKLLKLLLHAAGW-NH2) | – | – | 4 ± 0.28 | 0.48 | 0.83 | 2.2 ± 0.42 | 49 | 164 | 227 | 2119 | – | 13.3 ± 0.99 | 2.4 ± 0.85 | 1.75 ± 0.35
CC(C)C[C@H](NC(=O)CN)C(=O)N[C@@H](CC(C)C)C(=O)N[C@@H](CCCCN)C(=O)N[C@@H](CC(C)C)C(=O)N[C@@H](CC(C)C)C(=O)N[C@@H](CCCCN)C(=O)N[C@@H](CC(C)C)C(=O)N[C@@H](CC(C)C)C(=O)N[C@@H](CC(C)C)C(=O)N[C@@H](CCCCN)C(=O)N[C@@H](C)C(=O)N[C@@H](C)C(=O)NCC(=O)N[C@@H](Cc1c[nH]c2ccccc12)C(N)=O [KKK] (H-GLLKLLKLLLKAAGW-NH2) | – | – | 3.7 ± 0.14 | 1.70 | 1.25 | 1.35 ± 0.4 | 81 | 156 | 115 | 1369 | – | 9.65 ± 1.2 | 1.57 ± 0.24 | 1.37 ± 0.24

From publication PMC9069370, “Integrated Design of a Membrane‐Lytic Peptide‐Based Intravenous Nanotherapeutic Suppresses Triple‐Negative Breast Cancer” (Advanced Science, 2022)
